One experiment has as its target KRas G12V (Homo sapiens, UniProt P01116, G12V). Nature of the experiment: biochemical.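 Further: KRas binding measured by TR-FRET displacement at room temperature, IC50 fitted from percent of control values.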
For the next experiment, the target named is KRas WT (Homo sapiens, UniProt P01116). Nature of the experiment: biochemical.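 Further: binding to KRas read as TR-FRET displacement after a one-hour room-temperature incubation, IC50 derived from percent-of-control values.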
Sequence of KRas WT (P01116 1-169 isoform P01116-2): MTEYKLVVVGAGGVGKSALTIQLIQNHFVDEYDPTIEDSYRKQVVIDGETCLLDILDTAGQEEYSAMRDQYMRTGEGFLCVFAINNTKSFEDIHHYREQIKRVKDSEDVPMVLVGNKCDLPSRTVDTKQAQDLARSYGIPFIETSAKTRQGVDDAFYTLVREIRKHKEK
A further experiment concerns the target KRas G12A (Homo sapiens, UniProt P01116, G12A). Nature of the experiment: biochemical.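 Further: binding to KRas measured by TR-FRET displacement after one hour at room temperature, IC50 from a four-parameter fit of percent-of-control values.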
For the next experiment, the target named is KRas G12R (Homo sapiens, UniProt P01116, G12R). Description: biochemical.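 Further: TR-FRET displacement assay of compound binding to KRas, read after one hour at room temperature, potency from a four-parameter fit of percent-of-control values.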
Sequence of KRas G12R (P01116 1-169 isoform P01116-2 G12R): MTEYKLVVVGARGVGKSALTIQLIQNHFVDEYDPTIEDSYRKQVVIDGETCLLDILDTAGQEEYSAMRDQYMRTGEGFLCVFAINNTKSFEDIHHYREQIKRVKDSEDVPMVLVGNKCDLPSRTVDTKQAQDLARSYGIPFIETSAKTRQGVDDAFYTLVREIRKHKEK
A further experiment addresses T1, KRas Q61H (Homo sapiens, UniProt P01116, Q61H).
T1 construct: Biotinylated KRas (corresponding to amino acids 1-169, produced at Accelegan Inc.); biotin (biotinylated); purchased Accelegan Inc
Nature of the experiment: KRas binding assay (TR-FRET displacement). For orientation: In TR-FRET formats the signal depends on donor and acceptor labels being close together.

The next experiment deals with KRas G12S (Homo sapiens, UniProt P01116, G12S). Nature of the experiment: biochemical.
Sequence of KRas G12S (P01116 1-169 isoform P01116-2 G12S): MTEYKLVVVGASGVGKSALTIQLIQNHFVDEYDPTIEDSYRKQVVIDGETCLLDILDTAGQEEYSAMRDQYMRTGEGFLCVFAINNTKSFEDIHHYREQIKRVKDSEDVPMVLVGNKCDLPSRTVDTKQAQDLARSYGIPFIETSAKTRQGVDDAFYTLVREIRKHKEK
Another experiment addresses KRas G12C (Homo sapiens, UniProt P01116, G12C). Description: biochemical.
A further experiment has as its target KRas G12D (Homo sapiens, UniProt P01116, G12D). Description: biochemical.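 Further: TR-FRET displacement binding assay on KRas, read after a one-hour incubation at room temperature, IC50 fitted from percent-of-control values.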
The target in another experiment is T2, KRas G13D (Homo sapiens, UniProt P01116, G13D).
T2 construct: Biotinylated KRas (corresponding to amino acids 1-169, produced at Accelegan Inc.); biotin (biotinylated); purchased Accelegan Inc
T2 sequence (P01116 1-169 isoform P01116-2 G13D): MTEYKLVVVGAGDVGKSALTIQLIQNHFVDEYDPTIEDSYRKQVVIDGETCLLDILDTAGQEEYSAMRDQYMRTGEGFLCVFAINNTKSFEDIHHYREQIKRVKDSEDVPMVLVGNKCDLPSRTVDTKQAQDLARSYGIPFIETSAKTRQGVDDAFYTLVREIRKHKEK
Nature of the experiment: KRas binding assay (TR-FRET displacement).

These results are taken from patent US12398154B2, “Azaquinazoline pan-KRas inhibitors” (Mirati Therapeutics, Inc., priority 2020, dated 2025).

Sequence of KRas G12D (P01116 1-169 isoform P01116-2 G12D): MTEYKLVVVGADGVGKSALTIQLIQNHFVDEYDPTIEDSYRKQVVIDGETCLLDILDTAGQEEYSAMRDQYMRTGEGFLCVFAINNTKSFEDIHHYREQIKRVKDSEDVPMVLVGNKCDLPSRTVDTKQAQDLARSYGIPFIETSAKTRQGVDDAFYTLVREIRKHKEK
Sequence of KRas G12A (P01116 1-169 isoform P01116-2 G12A): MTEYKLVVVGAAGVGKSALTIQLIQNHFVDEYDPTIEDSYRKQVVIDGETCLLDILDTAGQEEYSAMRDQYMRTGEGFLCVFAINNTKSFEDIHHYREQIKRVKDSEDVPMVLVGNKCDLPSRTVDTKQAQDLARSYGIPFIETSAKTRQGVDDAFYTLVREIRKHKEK
T1 sequence (P01116 1-169 isoform P01116-2 Q61H): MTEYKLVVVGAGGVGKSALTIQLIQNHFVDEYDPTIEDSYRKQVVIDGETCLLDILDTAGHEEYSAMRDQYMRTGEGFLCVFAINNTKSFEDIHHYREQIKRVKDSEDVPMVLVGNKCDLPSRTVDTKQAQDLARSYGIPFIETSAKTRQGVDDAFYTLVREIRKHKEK
Sequence of KRas G12C (P01116 1-169 isoform P01116-2 G12C): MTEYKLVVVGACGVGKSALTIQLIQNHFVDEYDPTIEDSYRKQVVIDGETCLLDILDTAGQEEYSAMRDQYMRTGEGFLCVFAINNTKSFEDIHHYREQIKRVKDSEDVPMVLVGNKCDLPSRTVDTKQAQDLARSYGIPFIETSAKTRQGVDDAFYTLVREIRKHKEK
Sequence of KRas G12V (P01116 1-169 isoform P01116-2 G12V): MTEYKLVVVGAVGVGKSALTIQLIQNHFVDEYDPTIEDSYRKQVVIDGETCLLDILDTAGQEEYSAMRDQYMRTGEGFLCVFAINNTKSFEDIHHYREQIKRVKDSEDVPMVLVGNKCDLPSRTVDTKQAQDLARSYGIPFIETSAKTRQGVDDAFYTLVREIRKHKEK

A word on the IC50: it is the midpoint of a concentration-inhibition curve. Read a high IC50 as a need for much substance. As for `Fc1c(-c2cccc3cccc(Cl)c23)ncc2c(N3CCCC3c3cn[nH]c3)nc(OCC34CCCN3CCC4)nc12` (stereo not drawn) [Example 104, 4-(2-(1H-pyrazol-4-yl)pyrrolidin-1-yl)-7-(8-chloronaphthalen-1-yl)-8-fluoro-2-((tetrahydro-1H-pyrrolizin-7a(5H)-yl)methoxy)pyrido[4,3-d]pyrimidine], the IC50 is 2.87 µM against KRas G12V; 2.33 µM against KRas WT; 1.74 µM at KRas G12A; 2.82 µM at KRas G12R; 3210 nM at KRas Q61H; 2.02 µM against KRas G12S. Moreover, the IC50 against KRas G12C came to 2.3 µM; against KRas G12D it was 7.61 µM; on KRas G13D, 3640 nM.
In the case of `NC(=O)CCNc1nc(OCC23CCCN2CCC3)nc2c(F)c(-c3cccc4cccc(F)c34)ncc12` [Example 225, 3-((8-fluoro-7-(8-fluoronaphthalen-1-yl)-2-((hexahydro-1H-pyrrolizin-7a-yl)methoxy)pyrido[4,3-d]pyrimidin-4-yl)amino)propanamide], the half-maximal inhibitory concentration (IC50) on KRas G12V stood at 6.24 µM; at KRas WT, 16.6 µM; against KRas G12A, 14.9 µM; against KRas G12R, 9.39 µM; on KRas Q61H, 26100 nM; on KRas G12S, 9.9 µM. Besides, the values for the IC50 against KRas G12C, against KRas G12D and at KRas G13D were 8.12 µM, 21.7 µM and 23500 nM, respectively.
`O=C1CC(CNc2nc(OCC34CCCN3CCC4)nc3c(F)c(-c4cccc5cccc(F)c45)ncc23)CN1` (stereo not drawn) [Example 29, 4-(((8-fluoro-7-(8-fluoronaphthalen-1-yl)-2-((hexahydro-1H-pyrrolizin-7a-yl)methoxy)pyrido[4,3-d]pyrimidin-4-yl)amino)methyl)pyrrolidin-2-one]: the IC50 is 1.96 µM against KRas G12V; 5.84 µM against KRas WT; 6.2 µM on KRas G12A; 4.38 µM against KRas G12R; 13900 nM at KRas Q61H; 3.11 µM at KRas G12S. Moreover, the values for the IC50 against KRas G12C, on KRas G12D and at KRas G13D were 4.32 µM, 20.5 µM and 8190 nM, respectively.
In the case of `OCC1COCCN(c2nc(OCC34CCCN3CCC4)nc3c(F)c(-c4cccc5cccc(F)c45)ncc23)C1` (stereo not drawn) [Example 83, (4-(8-fluoro-7-(8-fluoronaphthalen-1-yl)-2-((hexahydro-1H-pyrrolizin-7a-yl)methoxy)pyrido[4,3-d]pyrimidin-4-yl)-1,4-oxazepan-6-yl)methanol], the IC50 came out at 0.498 µM against KRas G12V; 1.2 µM at KRas WT; 0.735 µM at KRas G12A; 0.992 µM at KRas G12R; 1990 nM at KRas Q61H; 0.703 µM against KRas G12S. The values for the IC50 at KRas G12C, on KRas G12D and on KRas G13D were 0.509 µM, 0.392 µM and 1890 nM, respectively.
As to `N#Cc1ccccc1N1CCN(c2nc(OCC34CCCN3CCC4)nc3c(F)c(-c4cccc5cccc(F)c45)ncc23)CC1` [Example 216, 2-(4-(8-fluoro-7-(8-fluoronaphthalen-1-yl)-2-((tetrahydro-1H-pyrrolizin-7a(5H)-yl)methoxy)pyrido[4,3-d]pyrimidin-4-yl)piperazin-1-yl)benzonitrile], the IC50 against KRas G12V was determined as 17.9 µM; against KRas WT it was 30.9 µM; against KRas G12A, 13.8 µM; at KRas G12R, 2.57 µM; on KRas Q61H, 83200 nM; at KRas G12S, 41 µM. The IC50 at KRas G12C was 6.3 µM; against KRas G12D, ≥ 100 µM; on KRas G13D, 59000 nM.
As for `Fc1c(-c2cccc3cccc(F)c23)ncc2c(NCc3ccc4nccn4c3)nc(OCC34CCCN3CCC4)nc12` [Example 208, 8-fluoro-7-(8-fluoronaphthalen-1-yl)-N-(imidazo[1,2-a]pyridin-6-ylmethyl)-2-((tetrahydro-1H-pyrrolizin-7a(5H)-yl)methoxy)pyrido[4,3-d]pyrimidin-4-amine], the IC50 on KRas G12V was found to be 0.824 µM; on KRas WT it was 4.01 µM; on KRas G12A, 1.3 µM; at KRas G12R it was 0.494 µM; on KRas Q61H, 7150 nM; on KRas G12S, 2.26 µM. The IC50 is 0.677 µM at KRas G12C, 17.4 µM at KRas G12D and 6250 nM at KRas G13D.
Turning to `OCc1n[nH]c(CNc2nc(OCC34CCCN3CCC4)nc3c(F)c(-c4cccc5cccc(Cl)c45)ncc23)n1` [Example 105, (5-(((7-(8-chloronaphthalen-1-yl)-8-fluoro-2-((tetrahydro-1H-pyrrolizin-7a(5H)-yl)methoxy)pyrido[4,3-d]pyrimidin-4-yl)amino)methyl)-1H-1,2,4-triazol-3-yl)methanol], the IC50 on KRas G12V worked out at 2.81 µM; against KRas WT, 8.01 µM; on KRas G12A, 6.7 µM; against KRas G12R, 5.92 µM; at KRas Q61H it was 13800 nM; at KRas G12S, 5.75 µM. The IC50 against KRas G12C was found to be 3.51 µM; at KRas G12D, 9.05 µM; on KRas G13D, 13800 nM.
For `Oc1nc(CCCNc2nc(OCC34CCCN3CCC4)nc3c(F)c(-c4cccc5cccc(Cl)c45)ncc23)n[nH]1` [Example 103, 3-(3-((7-(8-chloronaphthalen-1-yl)-8-fluoro-2-((tetrahydro-1H-pyrrolizin-7a(5H)-yl)methoxy)pyrido[4,3-d]pyrimidin-4-yl)amino)propyl)-1H-1,2,4-triazol-5-ol], the half-inhibitory concentration (IC50) on KRas G12V was found to be 1.83 µM; against KRas WT it was 3.95 µM; on KRas G12A, 2.09 µM; against KRas G12R it was 1.5 µM; at KRas Q61H, 4940 nM; against KRas G12S, 2.45 µM. Besides, the IC50 against KRas G12C was found to be 1.89 µM; against KRas G12D, 15.5 µM; on KRas G13D it was 4210 nM.
In the case of `CS(=O)(=O)C1CCCCCN(c2nc(OCC34CCCN3CCC4)nc3c(F)c(-c4cccc5cccc(F)c45)ncc23)C1` (stereo not drawn) [Example 251, 8-fluoro-7-(8-fluoronaphthalen-1-yl)-2-((hexahydro-1H-pyrrolizin-7a-yl)methoxy)-4-(3-(methylsulfonyl)azocan-1-yl)pyrido[4,3-d]pyrimidine], the IC50 against KRas G12V was determined as 3.87 µM; on KRas WT, 3.84 µM; against KRas G12A, 6.12 µM; on KRas G12R it was 14.6 µM; at KRas Q61H, 6250 nM; at KRas G12S it was 5.75 µM. Also, the 50% inhibitory concentration (IC50) on KRas G12C was determined as 6.4 µM; against KRas G12D, 6.83 µM; on KRas G13D it was 3780 nM.
Consider `O=S1(=O)CCCN1C1CCCN(c2nc(OCC34CCCN3CCC4)nc3c(F)c(-c4cccc5cccc(F)c45)ncc23)C1` (stereo not drawn) [Example 239, 2-(1-(8-fluoro-7-(8-fluoronaphthalen-1-yl)-2-((hexahydro-1H-pyrrolizin-7a-yl)methoxy)pyrido[4,3-d]pyrimidin-4-yl)piperidin-3-yl)isothiazolidine 1,1-dioxide], for which the IC50 on KRas G12V is 4.93 µM; against KRas WT, 1.83 µM; at KRas G12A, 1.98 µM; at KRas G12R, 4.81 µM; at KRas Q61H it was 2670 nM; on KRas G12S, 2.21 µM. Moreover, the values for the IC50 against KRas G12C, on KRas G12D and at KRas G13D were 1.61 µM, 8.65 µM and 1640 nM, respectively.
With `O=C1NC2(CCN(c3nc(OCC45CCCN4CCC5)nc4c(F)c(-c5cccc6cccc(F)c56)ncc34)CC2)CO1` [Example 224, 8-(8-fluoro-7-(8-fluoronaphthalen-1-yl)-2-((tetrahydro-1H-pyrrolizin-7a(5H)-yl)methoxy)pyrido[4,3-d]pyrimidin-4-yl)-3-oxa-1,8-diazaspiro[4.5]decan-2-one], the IC50 turned out to be 8.48 µM against KRas G12V; 6.28 µM at KRas WT; 8.45 µM at KRas G12A; 4.02 µM at KRas G12R; 9670 nM at KRas Q61H; 7.11 µM on KRas G12S. Besides, the 50% inhibitory concentration (IC50) against KRas G12C turned out to be 11.7 µM; against KRas G12D, 64.8 µM; on KRas G13D, 4830 nM.
Regarding `O=c1cc(CNc2nc(OCC34CCCN3CCC4)nc3c(F)c(-c4cccc5cccc(F)c45)ncc23)[nH][nH]1` [Example 231, 5-(((8-fluoro-7-(8-fluoronaphthalen-1-yl)-2-((hexahydro-1H-pyrrolizin-7a-yl)methoxy)pyrido[4,3-d]pyrimidin-4-yl)amino)methyl)-1H-pyrazol-3(2H)-one], the IC50 at KRas G12V was 24.6 µM; against KRas WT, 49.4 µM; on KRas G12A, 52.1 µM; at KRas G12R it was 8.68 µM; on KRas Q61H, 62300 nM; at KRas G12S, 31.6 µM. For the same molecule, the IC50 stood at 29.6 µM on KRas G12C, 97.9 µM against KRas G12D and 61500 nM on KRas G13D.
As to `O=CNC1CCN(c2nc(OCC34CCCN3CCC4)nc3c(F)c(-c4cccc5cccc(F)c45)ncc23)CC1` [Example 244, N-(1-(8-fluoro-7-(8-fluoronaphthalen-1-yl)-2-((hexahydro-1H-pyrrolizin-7a-yl)methoxy)pyrido[4,3-d]pyrimidin-4-yl)piperidin-4-yl)formamide], the IC50 against KRas G12V is 3.57 µM; against KRas WT, 5.14 µM; against KRas G12A, 1.85 µM; at KRas G12R, 3.1 µM; at KRas Q61H, 5080 nM; on KRas G12S, 3.06 µM. Besides, the values for the IC50 against KRas G12C, on KRas G12D and on KRas G13D were 2.82 µM, 18.2 µM and 4860 nM, respectively.
